From article PMC5891627, “Binding Specificity of Two PBPs in the Yellow Peach Moth Conogethes punctiferalis (Guenée)” (Frontiers in Physiology, 2018)
Read-outs that look alike come from different tables or passages of the source.

Tests used:
CpunPBP2 = CpunPBP2 (Conogethes punctiferalis, UniProt A0A1D6X8W8); test: Fluorescence displacement (competitive, 1-NPN) binding assay; details: for IC50: 1-NPN 2 μM as fluorescent reporter, 2 μM protein; for binding affinity to CpunPBP2 (in words): ranking among the 24 tested ligands
CpunPBP2, sequence (A0A1D6X8W8 entry or part of it): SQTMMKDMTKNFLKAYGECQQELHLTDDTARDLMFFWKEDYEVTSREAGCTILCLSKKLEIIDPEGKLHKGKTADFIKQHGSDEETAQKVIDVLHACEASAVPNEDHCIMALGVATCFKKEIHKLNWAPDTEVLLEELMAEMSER
Procedure: (§1) The fluorescence intensity was recorded on a FluoroMax-4 spectrophotometer (Horiba Scientific, USA) at room temperature using a 1 cm light path fluorimeter quartz cuvette. The fluorescent probe N-phenyl-1-naphthylamine (1-NPN) and all the tested chemicals were dissolved in HPLC purity methanol. The final concentration was prepared 1 mM. […] The fluorescence of 1-NPN was excited at 337 nm and emission spectra were recorded between […]. […] The GraphPad Prism 5 (GraphPad Software, Inc.) was used to estimate the K1−NPN (KD of complex protein /1-NPN) values by nonlinear regression for a unique site of binding. It was assumed that the proteins were 100% active, with a stoichiometry of 1:1 (protein:ligand) at saturation. […] In the equation, [1-NPN] is the free concentration of 1-NPN, and K1−NPN is the dissociation constant of the complex protein /1-NPN.

CpunPBP5 = CpunPBP5 (Conogethes punctiferalis, UniProt A0A0M4FIS7); test: as above; details: for binding affinity to CpunPBP5 (in words): ranking among the 24 tested ligands
CpunPBP5, sequence (A0A0M4FIS7 entry or part of it): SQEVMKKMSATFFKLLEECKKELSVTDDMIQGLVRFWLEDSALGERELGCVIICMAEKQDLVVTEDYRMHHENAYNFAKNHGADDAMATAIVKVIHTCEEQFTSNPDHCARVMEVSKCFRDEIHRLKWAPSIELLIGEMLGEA
Procedure: as §1

[1] = pH = 7.4, calculated from IC50: KD = [IC50]/(1+[1-NPN]/K1-NPN), read-out: KD (μM), calculated dissociation constant
[2] = ratio of fluorescence intensity at the pheromone concentration of 6 mM to the initial fluorescence intensity, pH = 7.4
[3] = pH = 7.4, 1-NPN 2 μM as fluorescent reporter, 2 μM protein, read-out: IC50
[4] = read-out: KD (μM), calculated dissociation constant, pH = 7.4, calculated from IC50: KD = [IC50]/(1+[1-NPN]/K1-NPN)
[5] = ratio of fluorescence intensity at the pheromone concentration of 6 mM to the initial fluorescence intensity, pH = 7.4, read-out: Int (%)

Compound	IC50 (CpunPBP2; pH = 7.4, read-out: IC50)	Kd (CpunPBP2; [1])	Int (%) (CpunPBP2; [2])	IC50 (CpunPBP5; [3])	Kd (CpunPBP5; [1])	Int (%) (CpunPBP5; [2])	Kd (CpunPBP2; read-out: dissociation constant (KD) of CpunPBP2/1-NPN complex, direct titration of 2 μM protein with 1-NPN, Scatchard plot, pH 7.4)	Kd (CpunPBP5)	activity at 6000 µM (CpunPBP2; pH 7.4, read-out: Int (%))	IC50 (CpunPBP2; pH = 7.4)	binding affinity to CpunPBP2 (in words) (CpunPBP2)	Kd (CpunPBP2; [4])	IC50 (CpunPBP5)	activity at 6000 µM (CpunPBP5; pH 7.4, read-out: Int (%))	binding affinity to CpunPBP5 (in words) (CpunPBP5)	activity at 6000 µM (CpunPBP2; [5])	activity at 6000 µM (CpunPBP5; [5])
C=C1CC/C=C(\C)CC[C@@H]2[C@@H]1CC2(C)C (relative stereo) [Trans-caryopyllene]	6.17 ± 0.14 µM	3.58 ± 0.08 µM	50.42 ± 0.51%	4.67 ± 0.02 µM	3.78 ± 0.01 µM	45.87 ± 0.10%											
c1ccc(Nc2cccc3ccccc23)cc1 [1-NPN, N-phenyl-1-naphthylamine, reference compound]							0.76 ± 0.1 µM	0.58 ± 0.04 µM									
CCCCCCCCCCCCCCO [1-tetrodecanol]								2.86 ± 0.02 µM	45.55 ± 0.38%	3.94 ± 0.14 µM	highest binding affinity	2.28 ± 0.08 µM	3.53 ± 0.03 µM	42.29 ± 0.12%	highest binding affinity		
CCC(C)CCCC(C)C (centres unmarked) [2,6-Dimethyloctane]	11 ± 0.32 µM	6.38 ± 0.19 µM		8.2 ± 0.1 µM	6.64 ± 0.08 µM											78.17 ± 0.43%	54.82 ± 0.07%
CCCCCCCCCC=O [Decanal]	13.1 ± 0.24 µM	7.62 ± 0.14 µM		15.2 ± 0.6 µM	12.5 ± 0.49 µM											72.86 ± 0.24%	72.6 ± 0.11%
CCCCCCC=O [Heptanal]	17.9 ± 0.83 µM	10.4 ± 0.48 µM		19.7 ± 0.95 µM	15.9 ± 0.77 µM										minimum binding abilities	84.85 ± 0.31%	68.32 ± 0.21%
C=C(C)[C@H]1CC=C(C)CC1 [Limonene]	11.9 ± 0.67 µM	6.92 ± 0.39 µM	82.86 ± 0.44%	10.7 ± 0.22 µM	8.67 ± 0.18 µM	60.13 ± 0.09%											
C=CC(C)(O)CCC=C(C)C (centres unmarked) [Linalool]								13.7 ± 1.15 µM		22 ± 4.72 µM	minimum binding affinities	12.8 ± 2.74 µM	17 ± 1.42 µM		minimum binding abilities	72.27 ± 0.43%	66.92 ± 0.13%
CCCCCCCCC=O [Nonanal]	14.7 ± 0.47 µM	8.5 ± 0.27 µM		13.1 ± 0.62 µM	10.6 ± 0.78 µM											77.22 ± 0.07%	65.83 ± 0.28%
CCCCCCCCCCCCCCCC(=O)O [Palmitic acid]	14.2 ± 0.71 µM	8.27 ± 0.41 µM		7.27 ± 0.06 µM	5.89 ± 0.47 µM											73.64 ± 0.06%	53.54 ± 0.01%
CCCCCC/C=C/C=O [Trans-2-nonenal]	22.3 ± 1.3 µM	12.9 ± 0.76 µM		9.62 ± 0.58 µM	7.79 ± 0.48 µM						minimum binding affinities					86.46 ± 0.38%	59 ± 0.62%
CCCCC/C=C/C=O [Trans-2-octanal]	12.3 ± 0.84 µM	7.15 ± 0.49 µM	62.32 ± 0.13%	12.2 ± 0.66 µM	9.89 ± 0.53 µM	62.12 ± 0.30%											
CCCCCCCCCCC=O [Undecanal]	7.49 ± 0.15 µM	4.34 ± 0.08 µM		8.67 ± 0.04 µM	7.01 ± 0.03 µM											56.59 ± 0.32%	58.66 ± 0.31%
COc1cc(C=O)ccc1O [Vanillin]								20.4 ± 2.35 µM		19.9 ± 1 µM		11.6 ± 0.58 µM	25.1 ± 2.9 µM		minimum binding abilities	85.4 ± 0.31%	71.19 ± 0.36%
CC/C=C\CCO [cis-3-hexen-1-ol]								14.9 ± 1.12 µM	89.59 ± 0.25%	34.5 ± 3.2 µM	minimum binding affinities	20 ± 1.85 µM	18.4 ± 1.38 µM	66.81 ± 0.61%	minimum binding abilities		
CC(=O)/C=C/C1C(C)=CCCC1(C)C (stereo not drawn) [α-ionone]								6.79 ± 0.08 µM	61.8 ± 1.49%	10.7 ± 0.97 µM		6.22 ± 0.56 µM	8.39 ± 0.1 µM	55.28 ± 0.1%			
CC1=CCC2CC1C2(C)C (stereo not drawn) [α-pinene]								11.4 ± 1.02 µM		27.9 ± 4.3 µM	minimum binding affinities	16.2 ± 2.5 µM	14.1 ± 1.26 µM			77.7 ± 0.33%	74.88 ± 0.39%
C=CC(=C)CC/C=C(\C)CCC=C(C)C [β-farnesene]	2.82 ± 0.19 µM	1.63 ± 0.11 µM	40.51 ± 0.78%	5.25 ± 0.02 µM	4.25 ± 0.02 µM	47.47 ± 0.12%											
CC(=O)/C=C/C1=C(C)CCCC1(C)C [β-ionone]								9.85 ± 0.38 µM	88.04 ± 0.58%	17.3 ± 0.84 µM		10.1 ± 0.49 µM	12.2 ± 0.47 µM	62.6 ± 0.79%			
C=C1CCC2CC1C2(C)C (stereo not drawn) [β-pinene]								9.3 ± 0.31 µM	80.45 ± 0.68%	21 ± 2.26 µM	minimum binding affinities	12.2 ± 1.31 µM	11.5 ± 0.39 µM	68.43 ± 0.63%			
Hexenal	34.56 ± 0.12 µM	20 ± 0.68 µM	83.11 ± 0.15%	11.7 ± 0.66 µM	9.44 ± 0.53 µM	60.86 ± 0.49%					minimum binding affinities						
